Results: patent US20260217708A1, “FUSED BENZAZEPINE DERIVATIVES FOR USE IN THE TREATMENT OF CANCER AND EPILEPSY” (UCB BIOPHARMA SRL, priority 2023, published 2026)

Tests used:
system Xc^− [1] = biological target: T1, system Xc^− (Homo sapiens, UniProt Q9UPY5); experiment: [^14C]L-Cystine uptake assay; assay type: cell-based; design: endogenous in cells; host or cells: H4 cells; settings: H4 cells, sodium-free HEPES buffer, 0.5 μM L-[14C]Cystine and 4.5 μM L-Cystine, 1 hour at 37° C.; read-out: pIC50 [^14C] L-Cystine uptake assay (converted)
T1 sequence (Q9UPY5 1-501): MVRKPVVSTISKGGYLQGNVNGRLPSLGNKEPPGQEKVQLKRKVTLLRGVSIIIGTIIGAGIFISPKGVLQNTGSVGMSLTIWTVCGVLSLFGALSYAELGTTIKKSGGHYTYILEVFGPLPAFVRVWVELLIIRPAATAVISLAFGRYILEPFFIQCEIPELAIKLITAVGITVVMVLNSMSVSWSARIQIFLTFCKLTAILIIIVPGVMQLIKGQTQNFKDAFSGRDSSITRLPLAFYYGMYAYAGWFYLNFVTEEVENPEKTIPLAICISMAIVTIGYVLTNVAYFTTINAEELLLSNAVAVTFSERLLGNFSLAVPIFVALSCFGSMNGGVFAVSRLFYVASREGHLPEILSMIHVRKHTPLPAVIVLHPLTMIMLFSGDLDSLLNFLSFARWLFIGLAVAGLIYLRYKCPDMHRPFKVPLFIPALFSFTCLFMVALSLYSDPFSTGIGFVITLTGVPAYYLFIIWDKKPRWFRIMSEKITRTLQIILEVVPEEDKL
T1 sequence (P08195 1-529 partner): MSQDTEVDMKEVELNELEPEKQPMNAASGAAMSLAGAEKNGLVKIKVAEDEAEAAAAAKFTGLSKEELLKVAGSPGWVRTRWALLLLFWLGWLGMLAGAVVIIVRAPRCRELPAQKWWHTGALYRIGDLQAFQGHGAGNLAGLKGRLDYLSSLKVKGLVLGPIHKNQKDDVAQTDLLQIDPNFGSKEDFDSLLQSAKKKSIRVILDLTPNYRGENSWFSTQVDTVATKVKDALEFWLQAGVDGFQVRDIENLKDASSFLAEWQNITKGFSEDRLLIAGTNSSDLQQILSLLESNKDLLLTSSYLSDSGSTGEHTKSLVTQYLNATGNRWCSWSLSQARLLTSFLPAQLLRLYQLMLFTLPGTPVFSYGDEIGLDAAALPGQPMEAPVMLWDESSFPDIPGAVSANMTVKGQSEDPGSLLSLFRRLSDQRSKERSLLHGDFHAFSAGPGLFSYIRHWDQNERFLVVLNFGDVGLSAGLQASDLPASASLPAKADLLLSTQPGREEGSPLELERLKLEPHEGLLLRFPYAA
Method in brief: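 Compound effect is given as pIC50, taken between controls of 1% DMSO and 50 μM Erastin. Human H4 cells were pretreated 15 min with compound in sodium-free buffer, then took up 0.5 μM [14C]cystine with 4.5 μM cold cystine for 1 hour at 37° C, read by scintillation proximity counting.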

system Xc^− [2] = biological target: T1, system Xc^−; experiment: Cystine-induced glutamate release assay; assay type: cell-based; design: endogenous in cells; host or cells: H4 cells; settings: H4 cells, sodium-free HEPES buffer, 50 μM L-Cystine, 2 hours, Amplex Red glutamate readout; for IC50: read-out: pIC50 Cystine-induced glutamate release assay (converted)
Method in brief: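 IC50 (reported as pIC50) normalized to DMSO 1% and Erastin 50 μM controls, from Amplex Red fluorescence of glutamate exported into supernatant. H4 cells were washed into sodium-free buffer to exclude EAAT transport, then given compound with 50 μM L-cystine for 2 h in the incubator.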

Structure (SMILES) | IC50 (system Xc^− [1]) [nM] | IC50 (system Xc^− [2]) [nM] | pIC50 Cystine-induced glutamate release assay (system Xc^− [2])
Cc1cc2c(cn1)-c1cc(F)cnc1C(C)C(=O)N2CC(=O)Nc1ccc(C(F)F)cc1 (single isomer, unassigned) [#328, N-[4-(difluoromethyl)phenyl]-2-[14-fluoro-5,10-dimethyl-9-oxo-4,8,12-triazatricyclo[9.4.0.0^2,7]pentadeca-1(15),2,4,6,11,13-hexaen-8-yl]acetamide] | 15.8 to 39.8 | < 15.8 | 
COc1nc(OC(F)F)cc2c1-c1cccnc1C(C)C(=O)N2CC(=O)Nc1ccc(C(F)F)cc1 (single isomer, unassigned) [#329, 2-[5-(difluoromethoxy)-3-methoxy-10-methyl-9-oxo-4,8,12-triazatricyclo[9.4.0.0^2,7]pentadeca-1(15),2(7),3,5,11,13-hexaen-8-yl]-N-[4-(difluoromethyl)phenyl]acetamide] | 15.8 to 39.8 | 15.8 to 39.8 | 
COc1nc(OC(F)F)cc2c1-c1cccnc1C(C)C(=O)N2CC(=O)Nc1ccc(C(F)F)cc1 (single isomer, unassigned) [#330, 2-[5-(difluoromethoxy)-3-methoxy-10-methyl-9-oxo-4,8,12-triazatricyclo[9.4.0.0^2,7]pentadeca-1(15),2(7),3,5,11,13-hexaen-8-yl]-N-[4-(difluoromethyl)phenyl]acetamide] | < 15.8 |  | C (about 7.40 < pIC50 ≤ about 7.80)
CC1C(=O)N(CC(=O)Nc2ccc(C(F)(F)F)nc2)c2cc(Cl)cc(F)c2-c2cccnc21 (single isomer, unassigned) [#331, 2-[9-chloro-11-fluoro-5-methyl-6-oxo-5H-pyrido[2,3-d][1]benzazepin-7-yl]-N-[6-(trifluoromethyl)-3-pyridyl]acetamide] | 15.8 to 39.8 | 39.8 to 100 | 
CC1C(=O)N(CC(=O)Nc2ccc(C(F)F)cc2)c2cc(Cl)cc(F)c2-c2cccnc21 (single isomer, unassigned) [#332, 2-[9-chloro-11-fluoro-5-methyl-6-oxo-5H-pyrido[2,3-d][1]benzazepin-7-yl]-N-[4-(difluoromethyl)phenyl]acetamide] | < 15.8 | 15.8 to 39.8 | 
CC1C(=O)N(CC(=O)Nc2ccc(C(F)(F)F)nc2)c2cc(N3CC(F)(F)C3)ccc2-c2cccnc21 (single isomer, unassigned) [#333, 2-[9-(3,3-difluoroazetidin-1-yl)-5-methyl-6-oxo-5H-pyrido[2,3-d][1]benzazepin-7-yl]-N-[6-(trifluoromethyl)-3-pyridyl]acetamide] | 15.8 to 39.8 | 39.8 to 100 | 
CC1C(=O)N(CC(=O)Nc2ccc(C(F)F)cc2)c2cc(N3CC(F)(F)C3)ccc2-c2cccnc21 (single isomer, unassigned) [#334, 2-[9-(3,3-difluoroazetidin-1-yl)-5-methyl-6-oxo-5H-pyrido[2,3-d][1]benzazepin-7-yl]-N-[4-(difluoromethyl)phenyl]acetamide] | < 15.8 | < 15.8 | 
COc1cc2c(c(OC)n1)-c1cccnc1C(C)C(=O)N2CC(=O)Nc1ccc(C(F)F)cc1 (single isomer, unassigned) [#335, N-[4-(difluoromethyl)phenyl]-2-[3,5-dimethoxy-10-methyl-9-oxo-4,8,12-triazatricyclo[9.4.0.0^2,7]pentadeca-1(15),2(7),3,5,11,13-hexaen-8-yl]acetamide] | < 15.8 | < 15.8 | 
COc1cc2c(c(OC)n1)-c1cccnc1C(C)C(=O)N2CC(=O)Nc1ccc(C(F)(F)F)cn1 (single isomer, unassigned) [#336, 2-[3,5-dimethoxy-10-methyl-9-oxo-4,8,12-triazatricyclo[9.4.0.0^2,7]pentadeca-1(15),2(7),3,5,11,13-hexaen-8-yl]-N-[5-(trifluoromethyl)-2-pyridyl]acetamide] | 39.8 to 100 | 15.8 to 39.8 | 
COc1cc2c(c(OC)n1)-c1cccnc1C(C)C(=O)N2CC(=O)Nc1ccc(C(F)(F)F)nc1 (single isomer, unassigned) [#337, 2-[3,5-dimethoxy-10-methyl-9-oxo-4,8,12-triazatricyclo[9.4.0.0^2,7]pentadeca-1(15),2(7),3,5,11,13-hexaen-8-yl]-N-[6-(trifluoromethyl)-3-pyridyl]acetamide] | 15.8 to 39.8 | 15.8 to 39.8 | 

The remaining lines, values ahead:

IC50 (system Xc^− [1]) [nM] | IC50 (system Xc^− [2]) [nM] | pIC50 Cystine-induced glutamate release assay (system Xc^− [2]) | Structure (SMILES)
< 15.8 | < 15.8 |  | CC1C(=O)N(CC(=O)Nc2ccc(Cl)c(F)c2)c2cc(C(F)F)ncc2-c2cccnc21 (single isomer, unassigned) [#342, N-(4-chloro-3-fluoro-phenyl)-2-[5-(difluoromethyl)-10-methyl-9-oxo-4,8,12-triazatricyclo[9.4.0.0^2,7]pentadeca-1(15),2,4,6,11,13-hexaen-8-yl]acetamide]
< 15.8 | 15.8 to 39.8 |  | CC1C(=O)N(CC(=O)Nc2ccc(Cl)c(F)c2)c2cc(C(F)F)ncc2-c2cc(F)cnc21 (single isomer, unassigned) [#348, N-(4-chloro-3-fluoro-phenyl)-2-[5-(difluoromethyl)-14-fluoro-10-methyl-9-oxo-4,8,12-triazatricyclo[9.4.0.0^2,7]pentadeca-1(15),2,4,6,11,13-hexaen-8-yl]acetamide]
15.8 to 39.8 | 15.8 to 39.8 |  | CC1C(=O)N(CC(=O)Nc2ccc(C(F)F)cc2)c2cc(C(F)F)c(=O)n(C)c2-c2ccccc21 (single isomer, unassigned) [#357, 2-[3-(difluoromethyl)-1,7-dimethyl-2,6-dioxo-7H-pyrido[3,2-d][3]benzazepin-5-yl]-N-[4-(difluoromethyl)phenyl]acetamide]
100 to 501 | 15.8 to 39.8 |  | Cc1cc2c(c(=O)n1C)-c1ccnn1C(C)C(=O)N2CC(=O)Nc1ccc(C(F)F)cc1 (single isomer, unassigned) [#358, N-[4-(difluoromethyl)phenyl]-2-[7,12,13-trimethyl-8,14-dioxo-5,6,9,13-tetrazatricyclo[8.4.0.0^2,6]tetradeca-1(10),2,4,11-tetraen-9-yl]acetamide]
15.8 to 39.8 | 15.8 to 39.8 |  | Cc1cc2c(c(=O)o1)-c1ccccc1C(C)C(=O)N2CC(=O)Nc1ccc(C(F)F)cc1 (single isomer, unassigned) [#359, N-[4-(difluoromethyl)phenyl]-2-[3,7-dimethyl-1,6-dioxo-7H-pyrano[4,3-d][3]benzazepin-5-yl]acetamide]
39.8 to 100 | 15.8 to 39.8 |  | Cc1cc2c(c(=O)o1)-c1cccnc1C(C)C(=O)N2CC(=O)Nc1ccc(C(F)F)cc1 (single isomer, unassigned) [#360, N-[4-(difluoromethyl)phenyl]-2-[5,10-dimethyl-3,9-dioxo-4-oxa-8,12-diazatricyclo[9.4.0.0^2,7]pentadeca-1(15),2(7),5,11,13-pentaen-8-yl]acetamide]
< 15.8 | 15.8 to 39.8 |  | CC1C(=O)N(CC(=O)Nc2ccc(Cl)c(F)c2)c2ccn(C)c(=O)c2-c2ccc(F)cc21 (single isomer, unassigned) [#364, N-(4-chloro-3-fluoro-phenyl)-2-[-9-fluoro-2,7-dimethyl-1,6-dioxo-7H-pyrido[4,3-d][3]benzazepin-5-yl]acetamide]
15.8 to 39.8 | < 15.8 |  | CC1C(=O)N(CC(=O)Nc2ccc(C(F)F)cc2)c2cc(C3(F)CC3)oc(=O)c2-c2cccnc21 (single isomer, unassigned) [#365, N-[4-(difluoromethyl)phenyl]-2-[5-(1-fluorocyclopropyl)-10-methyl-3,9-dioxo-4-oxa-8,12-diazatricyclo[9.4.0.0^2,7]pentadeca-1(15),2(7),5,11,13-pentaen-8-yl]acetamide]
15.8 to 39.8 | 15.8 to 39.8 |  | Cc1cc2c(c(=O)n1C)-c1cncnc1C(C)C(=O)N2CC(=O)Nc1ccc(C(F)F)cc1 (single isomer, unassigned) [#367, N-[4-(difluoromethyl)phenyl]-2-[8,13,14-trimethyl-9,15-dioxo-4,6,10,14-tetrazatricyclo[9.4.0.0^2,7]pentadeca-1(11),2(7),3,5,12-pentaen-10-yl]acetamide]
